We go through five molecules from patent publication US20240382509A1, “Cannabinoids C- and O-glycosides possessing anti-proliferative and anti-metastatic properties and process for preparation thereof” (Council of Scientific and Industrial Research, priority 2021, published 2024).

Read-outs that look alike come from different tables or passages of the source.

The test system of series [1] is Panc-1 cells. The series can be described thus: MTT cell viability assay, Panc-1. The conditions noted are these: for IC50: pancreatic cancer cells; for fold activity compared to parent compound, pancreatic cancer cells: ratio of IC50 parent vs derivative, Panc-1. Format: cell-based. The protocol:
(§1) Cell viability assay: The cell viability was determined by the standard MTT assay method. Briefly, Panc-1, HCT-116, A549, PC3, MIAPaca-2, HT-29, MDA-MB-231, MCF7 cells, and fR2cells were seeded in 96 well tissue culture plates (Nunc) at a density of 4×10^3 cells per well and treated with varying concentrations of the test compounds in triplicates. DMSO was taken as a vehicle, and its final concentration was maintained at 0.2% in the culture medium. Doxorubicin was employed as a positive control. After 44 h of incubation, MTT dye solution was added into the medium, and cells were incubated for another 4 h at 37° C. in 5% CO2. The amount of colored formazan derivatives formed was measured by taking optical density (OD) using a microplate reader (TECAN, Infinite M200 Pro) at 570 nm, and the percentage of cell viability was calculated. The IC50 values were calculated using GraphPad Prism software (Version 5.0).

The test system of series [2] is MIAPaCa-2 cells. The series can be described thus: MTT cell viability assay, MIAPaCa-2. Type of series: cell-based, human. The conditions noted are these: Homo sapiens, MIA PaCa-2, 48 h. On the procedure: as §1
(Tetrazolium assays rely on reduction of a dye to a coloured formazan, in cell work by metabolically active cells.)

Another series concerns HCT-116 cells. The series can be described thus: MTT cell viability assay, HCT-116. Format: cell-based. The conditions noted are these: for IC50: Homo sapiens, HCT-116, 48 h, colorectal adenocarcinoma cells. On the procedure:
as §1

The test system of series [3] is human colorectal adenocarcinoma cell line (HT-29). The series can be described thus: MTT cell viability assay, HT-29. The following applies: for IC50: Homo sapiens, HT-29, 48 h, human colorectal adenocarcinoma cell line. Format: cell-based. On the procedure: as §1
For series [4], the system named is lung adenocarcinoma cells (A549). The series can be described thus: MTT cell viability assay, A549. Format: cell-based. The protocol:
as §1

The test system of the next series is PC3 cells. As to the kind of experiment: MTT cell viability assay, PC3. Type of series: cell-based. The following applies: Homo sapiens, PC-3, 48 h. On the procedure: as §1
In a further series the test system is MCF-7 cells. As to the kind of experiment: MTT cell viability assay, MCF-7. Type of series: cell-based. The following applies: Homo sapiens, MCF7, 48 h, breast cancer cell of epithelial origin. The protocol: as §1
A short description of series [5]: MTT cell viability assay, fR2 normal epithelial cells. Type of series: cell-based, human. The conditions noted are these: human, fR2 normal epithelial cells; MTT, 48 h; normal epithelial cell line; read-out: Cytotoxicity (IC50) fR2. On the procedure: as §1
Series [6] relates to MIAPaCa-2 cells. As to the kind of experiment: Cell scatter assay. Format: cell-based, human. The following applies: MIAPaCa-2, 1, 2, 3 μM, 36 h, compared to vehicle and parent molecule. The protocol: Cell scatter assay MIAPaCa-2 cells were seeded onto a 12 well plate at a seeding density of 500 cells/well and kept for 4-5 days, and there was the formation of scatter colonies since the cell line itself is a metastatic cell line. Accordingly, they were treated with 1 μM, 2 μM & 3 μM of compound 2, 2a, 2b, 3, 3a, 4, 4a & 4b for 36 h, and upon termination, they were washed with PBS and observed under an inverted microscope at 20× magnification (FIG. 3).

The test system of series [7] is Panc-1 cells. The series can be described thus: Colony formation assay. Type of series: cell-based. The conditions noted are these: Panc-1, 1000 cells/well, 5 days, compared to corresponding parent compounds. The protocol:
Colony formation assay. […] cells were seeded onto 6 well plates with a seeding density of 1000 cells/well. The cells after attachment were treated with 2 (2a, 2b), 3 (3a, 3b), 4 (4a, 4b) along with DMSO as a vehicle control and incubated for 5-6 days. After incubation, the plates were washed with ice-cold PBS, and the cells were fixed with methanol for 5 min. After fixing. the cells were stained with 0.2% crystal violet stain for 1 h. The cells were then washed with distilled water to remove the stain and were observed under an inverted microscope at 20× magnification.
The anti-proliferative properties of glycosidic derivatives were further analysed by colony formation assay in pancreatic cancer cells. The novel C-glycosidic derivatives of compounds 1, 2, 3 and 4 viz 1b, 2b, 3b & 4b display anti-proliferative property (FIG. 2). Panc-1cells were seeded onto 6 well plates at seeding density 1000 cells/well and treated with indicated concentration of 1b, 2b, 3b and 4b derivatives along with their parent compounds and DMSO as vehicle for 5 days. Upon termination the cells were stained with crystal violet and images of field were photographed.

Setting [8] is: read-out: Cytotoxicity (IC50) MIAPaCa-2, MTT, 48 h.
The mark [9] stands for this setting: read-out: Cytotoxicity (IC50) HCT-116, MTT, 48 h.
The mark [10] stands for this setting: read-out: Cytotoxicity (IC50) HT-29, MTT, 48 h.
The mark [11] stands for this setting: read-out: Cytotoxicity (IC50) PC3, MTT, 48 h.
The mark [12] stands for this setting: read-out: Cytotoxicity (IC50) MCF-7, MTT, 48 h.
Where [13] appears, read: Homo sapiens, PANC-1, 48 h, MTT, 48 h, read-out: Cytotoxicity (IC50) Panc-1.
Setting [14] is: MTT, 48 h, read-out: Cytotoxicity (IC50) MIAPaCa-2.
Where [15] appears, read: MTT, 48 h, read-out: Cytotoxicity (IC50) HCT-116.
[16] abbreviates: MTT, 48 h, read-out: Cytotoxicity (IC50) HT-29.
Setting [17] is: Homo sapiens, A549, 48 h, MTT, 48 h, read-out: Cytotoxicity (IC50) A549.
[18] abbreviates: MTT, 48 h, read-out: Cytotoxicity (IC50) PC3.
[19] abbreviates: MTT, 48 h, read-out: Cytotoxicity (IC50) MCF-7.

For orientation: IC50 means the concentration at which inhibition is half-maximal. `CCCCCc1cc(O[C@@H]2OC(CO)[C@@H](O)C(O)C2O)c2c(c1)OC(C)(C)[C@@H]1CC=C(C)C[C@@H]21` (single isomer, unassigned) [Compound 3a, Δ^8-tetrahydrocannabinol-1-O-β-D-glucopyranoside]: the IC50 in the series on Panc-1 cells [1] (read-out: Cytotoxicity (IC50) Panc-1, MTT, 48 h) came to 3.16 µM; in the series with MIAPaCa-2 cells [2] (setting [8]), 0.742 µM; in the series with HCT-116 cells (setting [9]), 30.2 µM; in series [3] (setting [10]) it was 10.7 µM; in series [4] (read-out: Cytotoxicity (IC50) A549, MTT, 48 h) it was 2.15 µM; in the series with PC3 cells (setting [11]) it was 38 µM. In the series on MCF-7 cells (setting [12]), the 50% inhibitory concentration (IC50) was 34.9 µM. The half-inhibitory concentration (IC50) at 48 h in series [5] was over 100 µM. Also, in the series on MIAPaCa-2 cells [6], the cell scattering entry is “did not prevent cell scattering”.

For `CCCc1cc2c(c(O)c1[C@@H]1OC(CO)[C@@H](O)C(O)C1O)[C@@H]1CC(C)=CC[C@H]1C(C)(C)O2` (stereo partly drawn) [Compound 1b, Δ^8-tetrahydrocannabivarin-2-C-β-D-glucopyranoside], the IC50 was determined as 4.12 µM with Panc-1 cells [1] (setting [13]); 9.2 µM with MIAPaCa-2 cells [2] (setting [14]); 3.91 µM in the series on HCT-116 cells (setting [15]); 40.2 µM in [3] (setting [16]); 35.7 µM in series [4] (setting [17]); 24 µM with PC3 cells (setting [18]). The half-maximal inhibitory concentration (IC50) in the series on MCF-7 cells (setting [19]) is over 100 µM. Moreover, the “fold activity compared to parent compound, pancreatic cancer cells” value with Panc-1 cells [1] is reported as over 2 fold. Further, the “anti-proliferative potential in colony formation assay” value (shortened to “anti-proliferative potential”) in the series on Panc-1 cells [7] is given as “strong anti-proliferative potential”.

Consider `CCCCCc1cc2c(c(O)c1[C@@H]1OC(CO)[C@@H](O)C(O)C1O)[C@@H]1C=C(C)CC[C@H]1C(C)(C)O2` (stereo partly drawn) [Compound 2b, Δ^9-tetrahydrocannabinol-2-C-β-D-glucopyranoside], for which the IC50 with Panc-1 cells [1] (setting [13]) was determined as 3.16 µM; in the series with MIAPaCa-2 cells [2] (setting [14]), 1.59 µM; in the series on HCT-116 cells (setting [15]), 43.2 µM; in series [3] (setting [16]), 10.8 µM; in [4] (setting [17]), 1.32 µM; in the series on PC3 cells (setting [18]), 28 µM. Moreover, in the series with MCF-7 cells (setting [19]), the IC50 was found to be 7.4 µM. Further, in the series with Panc-1 cells [1], the “fold activity compared to parent compound, pancreatic cancer cells” value came out at 6.6 fold. The “fold anti-proliferative activity compared to parent compound, HT-29” value in [3] (ratio of IC50 parent 2 vs derivative) is “more than 10 fold”. In the series on Panc-1 cells [7], the “anti-proliferative potential” value is listed as “strong anti-proliferative potential”. Besides, in the series with MIAPaCa-2 cells [6], the cell scattering result is on record as “typical clumping of scatter cells”.

Take `CCCCCc1cc(O[C@@H]2OC(CO)[C@@H](O)C(O)C2O)c2c(c1)OC(C)(C)c1ccc(C)cc1-2` (stereo partly drawn) [Compound 4a, Cannabinol-1-O-β-D-glucopyranoside]: the IC50 was 3.16 µM in the series on Panc-1 cells [1] (Homo sapiens, PANC-1, 48 h, read-out: Cytotoxicity (IC50) Panc-1, MTT, 48 h); 2.58 µM with MIAPaCa-2 cells [2] (setting [8]); 2.98 µM in the series with HCT-116 cells (setting [9]); 3.53 µM in series [3] (setting [10]); 3.01 µM in series [4] (Homo sapiens, A549, 48 h, read-out: Cytotoxicity (IC50) A549, MTT, 48 h); 51.4 µM with PC3 cells (setting [11]). The IC50 in the series with MCF-7 cells (setting [12]) stood at 7.74 µM. The IC50 at 48 h in series [5] is over 100 µM. Moreover, the cell scattering entry with MIAPaCa-2 cells [6] was “typical clumping of scatter cells”.

As for `CCCCCc1cc2c(c(O)c1[C@@H]1OC(CO)[C@@H](O)C(O)C1O)-c1cc(C)ccc1C(C)(C)O2` (stereo partly drawn) [Compound 4b, Cannabinol-2-C-β-D-glucopyranoside], the half-maximal inhibitory concentration (IC50) worked out at 13.9 µM with Panc-1 cells [1] (setting [13]); 8.31 µM in the series on MIAPaCa-2 cells [2] (setting [14]); 3 µM in the series with HCT-116 cells (setting [15]); 11.5 µM in series [3] (setting [16]); 22.6 µM in series [4] (setting [17]); 39 µM in the series with PC3 cells (setting [18]). Further, the 50% inhibitory concentration (IC50) with MCF-7 cells (setting [19]) is 43.1 µM. Further, the “fold anti-proliferative activity compared to parent compound, HCT-116” value in the series with HCT-116 cells (ratio of IC50 parent 4 vs derivative) is on record as over 15 fold. Further, the “anti-proliferative potential” value in the series with Panc-1 cells [7] is given as “strong anti-proliferative potential”. In addition, in the series with MIAPaCa-2 cells [6], the cell scattering entry is recorded as “typical clumping of scatter cells”.
